Assay results taken from patent US20120009257A1 (priority 2009, published 2012).

How the values were obtained:
[1] = Bioequivalence study of fixed combination versus free combination, plasma PK by LC/MS/MS; assay type: in vivo, healthy subjects
Procedure: Pharmacokinetic measurements were performed on blood collected from each subject. […] The PK parameters were determined in plasma, using non-compartmental methods.
AUC0-tlast: Area under the concentration-time curve from time zero to time tlast, where tlast is the last time point with measurable concentration (ng hr/ml).
AUC0-inf: Area under the plasma concentration-time curve from time zero to infinity (ng hr/ml).
Cmax: Maximum (peak) plasma concentration (ng/ml).
Tmax: Time to reach peak or maximum concentration (hr).
T1/2: Elimination half-life associated with the terminal slope (E) of a semilogarithmic concentration-time curve (hr).

[2] = drug substance; cited from earlier work

Row | SMILES | intra-subject coefficient of variation (CV) for AUC0-inf ([1]; aliskiren) [%] | intra-subject coefficient of variation (CV) for AUC0-tlast ([1]; aliskiren) [%] | intra-subject coefficient of variation (CV) for Cmax ([1]; aliskiren) [%] | hygroscopicity [2] | intra-subject CV for AUC0-inf ([1]; valsartan) [%] | intra-subject CV for AUC0-tlast ([1]; valsartan) [%] | intra-subject CV for Cmax ([1]; valsartan) [%]
1 | COCCCOc1cc(C[C@@H](C[C@H](N)[C@@H](O)C[C@H](C(=O)NCC(C)(C)C(N)=O)C(C)C)C(C)C)ccc1OC [Aliskiren, 2(S),4(S),5(S),7(S)—N-(3-amino-2,2-dimethyl-3-oxopropyl)-2,7-di(1-methylethyl)-4-hydroxy-5-amino-8-[4-methoxy-3-(3-methoxy-propoxy)phenyl]-octanamide] | 33.19 | 33.98 | 51.90 | highly hygroscopic |  |  | 
2 | CCCCC(=O)N(Cc1ccc(-c2ccccc2-c2nnn[nH]2)cc1)[C@H](C(=O)O)C(C)C [Valsartan] |  |  |  |  | 28.33 | 28.56 | 40.37
